According to patent US12509474B2, “Inhibitors of complement factors and uses thereof” (Annexon, Inc., priority 2020, dated 2025):
Counter-ions that a name gives are not always drawn.

The molecules below were run against T1, human C1s protein (Homo sapiens, UniProt P09871) (assay: C1s enzymatic assay (hydrolysis of YLGR-Rh110-dPro)). Conditions: substrate YLGR-Rh110-dPro 20 μM, 15 min pre-incubation, 60 min RT, fluorescence.
T1 construct: A104
T1 sequence (P09871 16-688): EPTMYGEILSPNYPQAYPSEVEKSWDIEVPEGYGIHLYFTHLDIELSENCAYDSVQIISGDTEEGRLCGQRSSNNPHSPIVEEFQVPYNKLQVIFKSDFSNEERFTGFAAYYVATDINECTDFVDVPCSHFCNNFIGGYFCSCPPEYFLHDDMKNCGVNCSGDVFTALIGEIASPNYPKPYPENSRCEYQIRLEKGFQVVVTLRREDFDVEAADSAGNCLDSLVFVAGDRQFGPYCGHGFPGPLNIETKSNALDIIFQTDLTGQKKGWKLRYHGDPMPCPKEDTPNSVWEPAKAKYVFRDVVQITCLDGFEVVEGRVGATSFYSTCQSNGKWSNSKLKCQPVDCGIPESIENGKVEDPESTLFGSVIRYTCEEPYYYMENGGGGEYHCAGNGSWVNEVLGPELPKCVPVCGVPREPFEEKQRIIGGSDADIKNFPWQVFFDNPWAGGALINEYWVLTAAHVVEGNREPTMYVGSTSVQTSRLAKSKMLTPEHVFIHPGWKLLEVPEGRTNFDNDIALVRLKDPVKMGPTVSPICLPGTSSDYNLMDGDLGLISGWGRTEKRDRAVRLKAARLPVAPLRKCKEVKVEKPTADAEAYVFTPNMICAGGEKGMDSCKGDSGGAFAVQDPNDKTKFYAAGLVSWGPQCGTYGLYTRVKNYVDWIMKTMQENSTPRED
Assay type: biochemical
Procedure: Compound Testing in the C1s Enzymatic Assay
The enzyme cleaves the substrate with the release of Rh110 which is highly fluorescent. C1s inhibitors prevent the hydrolysis of the substrate thus resulting in a decrease of the signal.
On the day of the experiment 0.1 mg/mL BSA (Sigma, B4287) is added fresh to the buffer. The test item stock solutions are serially diluted 1:3 or 1:4 or 1:5 with DMSO, 11-point curves, in a 384-well compound plate. Nafamostat concentration curve is always included in the assay plate as a reference control.
The high controls are prepared dispensing in 0.25 μL DMSO in column 23, rows AH or AP and low controls with 0.25 μL of 0.1 M Nafamostat. […] The YLGR-Rh110-dPro substrate is prepared as 2× of the final assay concentration of 20 μM. 1/well of 2× enzyme solution is dispensed and pre-incubated for 15 min with the compounds. The enzymatic reaction is then started with 5 μL/well of the 2× substrate solution.

Row | Molecule | hC1s pIC50
1 | 7-(1-hydroxy-3-prop-2-enyl-3,4-dihydro-2,1-benzoxazonin-7-yl)cinnolin-4-amine [Example 148] | 8.64
2 | 7-(3-cyclopropyl-1-hydroxy-3,4-dihydro-2,1-benzoxazonin-7-yl)cinnolin-4-amine [Example 147] | 8.38

Same assay, conditions: substrate YLGR-Rh110-dPro 20 μM, 15 min pre-incubation, 60 min RT, fluorescence, read-out: hC1s pIC50 (converted)

Row | IC50 | Molecule
3 | 1.02 nM | Cc1nnc(N)c2ccc(-c3ccc4c(c3)B(O)OC(C)C4)cc12 (single isomer, unassigned) [Example 72, 6-(1-hydroxy-3-methyl-3,4-dihydro-2,1-benzoxazonin-7-yl)-4-methylphthalazin-1-amine]
4 | 0.912 nM | Cc1nnc(N)c2ccc(-c3ccc4c(c3)B(O)OC(C)C4)cc12 (single isomer, unassigned) [Example 73, 6-(1-hydroxy-3-methyl-3,4-dihydro-2,1-benzoxazonin-7-yl)-4-methylphthalazin-1-amine]
5 | 1.91 nM | CC1Cc2ccc(-c3ccc4c(N)cnnc4c3)cc2B(O)O1 (single isomer, unassigned) [Example 94]
6 | 3.55 nM | CC1Cc2ccc(-c3ccc4c(N)cnnc4c3)cc2B(O)O1 (single isomer, unassigned) [Example 95]
7 | 3.09 nM | CC(C)C1Cc2ccc(-c3ccc4c(N)cnnc4c3)cc2B(O)O1 (single isomer, unassigned) [Example 152]
8 | 1.66 nM | CC(C)C1Cc2ccc(-c3ccc4c(N)cnnc4c3)cc2B(O)O1 (single isomer, unassigned) [Example 153]
9 | 1.78 nM | Nc1cnnc2cc(-c3cc(B(O)O)ccc3OCC3CNC(=O)C3)ccc12 (single isomer, unassigned) [Example 154, [3-(4-aminocinnolin-7-yl)-4-[(5-oxopyrrolidin-3-yl)methoxy]phenyl]boronic Acid]
10 | 3.89 nM | Nc1cnnc2cc(-c3cc(B(O)O)ccc3OCC3CNC(=O)C3)ccc12 (single isomer, unassigned) [Example 155, [3-(4-aminocinnolin-7-yl)-4-[(5-oxopyrrolidin-3-yl)methoxy]phenyl]boronic Acid]
11 | 1.17 nM | Nc1nncc2cc(-c3cccc(B(O)O)c3)ccc12 [Example 1, [3-(1-aminophthalazine-6-yl)phenyl]boronic Acid]
12 | 0.589 nM | COc1ccc(B(O)O)cc1-c1ccc2c(N)cnnc2c1 [Example 5, [3-(4-aminocinnolin-7-yl)-4-methoxyphenyl]boronic Acid]

Second part, the molecule before the results:

Row | Molecule | IC50
13 | Cc1nnc(N)c2ccc(-c3cc(B(O)O)ccc3NC(=O)C3CC(F)(F)CN3)cc12 (stereo in doubt) [Example 81, [3-(1-amino-4-methylphthalazin-6-yl)-4-[[(2S)-4,4-difluoropyrrolidine-2-carbonyl]amino]phenyl]boronic Acid] | 4.57 nM
14 | COc1ccc(B(O)O)cc1-c1ccc2c(N)nncc2c1 [Example 2, [3-(1-aminophthalazin-6-yl)-4-methoxyphenyl]boronic Acid Formic Acid Salt] | 6.31 nM
15 | Cc1nnc(N)c2ccc(-c3cccc(B(O)O)c3)cc12 [Example 4, [3-(1-amino-4-methylphthalazin-6-yl)phenyl]boronic Acid] | 1.51 nM
16 | COc1ccc(B(O)O)cc1-c1ccc2c(N)nnc(C)c2c1 [Example 7, [3-(1-amino-4-methylphthalazin-6-yl)-4-methoxyphenyl]boronic Acid Formic Acid Salt] | 0.891 nM
17 | COCCOCCOCCOCCOCCOCCOc1ccc(B(O)O)cc1-c1ccc2c(N)cnnc2c1 [Example 8, [3-(4-aminocinnolin-7-yl)-4-[2-[2-[2-[2-[2-(2-methoxyethoxy)ethoxy]ethoxy]ethoxy]ethoxy]ethoxy]phenyl]boronic Acid] | 3.09 nM
18 | CC(C)c1nnc(N)c2ccc(-c3cccc(B(O)O)c3)cc12 [Example 9, [3-(1-amino-4-propan-2-ylphthalazin-6-yl)phenyl]boronic Acid Hydrochloric Acid Salt] | 513 nM
19 | Cc1ccc(B(O)O)cc1-c1ccc2c(N)nnc(C)c2c1 [Example 10, [3-(1-amino-4-methylphthalazin-6-yl)-4-methylphenyl]boronic Acid Formic Acid Salt] | 6.92 nM
